Test results published in patent publication US20220281846A1, “COMPOUNDS AND COMPOSITIONS FOR THE TREATMENT OF RESPIRATORY DISEASES” (THE UNIVERSITY OF MELBOURNE, priority 2018, published 2022).

Tests used:
[1] = biological target: T1, human recombinant Casein kinase 18 (CK1δ) (Homo sapiens, UniProt P48730); test: Kinase inhibition assay (HotSpot, Reaction Biology Corp), CK1δ; assay type: biochemical; settings: 10 μM ATP, 10-dose IC50 mode; read-out: Compound IC50 (M) CK1δ
T1 construct: purchased Reaction Biology Corp

ERBB4/HER4 = biological target: T2, ERBB4/HER4 (Homo sapiens, UniProt Q15303); test: Kinase inhibition assay (HotSpot), ERBB4/HER4; assay type: biochemical; settings: 10 μM ATP, 10-dose IC50 mode; read-out: Compound IC50 (M) ERBB4/HER4
T2 construct: purchased Reaction Biology Corp

MINK/MINK1 = biological target: T3, MINK/MINK1 (Homo sapiens, UniProt Q8N4C8); test: Kinase inhibition assay (HotSpot), MINK/MINK1; assay type: biochemical; settings: 10 μM ATP, 10-dose IC50 mode; read-out: Compound IC50 (M) MINK/MINK1
T3 construct: purchased Reaction Biology Corp

[2] = system: TGF-β-induced IL-11 in primary human parenchymal fibroblast cells (pFbs); test: Human parenchymal fibroblast cell assay, TGF-β-induced IL-11 (ELISA); assay type: cell-based; settings: compounds 0.1-10 μM 30 min prior to TGF-β1, 16-24 hours, 4.00* is assigned to compounds that failed to cause 50% or more inhibition at 10 µM, read-out: pIC50 IL-11 suppression (converted)
Procedure: Human Parenchymal Fibroblast Cell Assay
Primary human parenchymal fibroblast cells (pFbs) were cultured from parenchyma of lung resection specimens and from non-transplanted lungs of donors without chronic respiratory disease. pFbs were passaged in Dulbecco's Modified Eagle's Media (DMEM) containing 10% (v/v) heat-inactivated fetal calf serum (FCS), 15 mM HEPES, 0.2% (v/v) sodium bicarbonate, 2 mM L-glutamine, 1% (v/v) non-essential amino acids, 1% (v/v) sodium pyruvate, 2.5 μg/mL amphotericin, 5 IU/mL penicillin and 50 μg/mL streptomycin. In some experiments the human lung fibroblast cell line, MRC5 (sourced from ATTC) was used as indicated. The MRC5 line was maintained under the same conditions as described for the pFb.
Prior to experimentation, pFb were incubated in serum-free DMEM containing 0.25% bovine serum albumin (BSA) and insulin-transferrin-selenium-containing supplement (Monomed A; CSL, Parkville, Melbourne, Australia). The cells were incubated with small molecular CK1δ inhibitors (0.1-10 μM) for 30 min prior to […] TGF-β1 (R&D Systems, Minneapolis, Minn.) and the incubation continued for 16-24 hours prior to harvest of supernatant for detection of immunoreactive IL-11. Stock solutions were made as 10 mM in 100% DMSO and diluted to the required concentration in medium containing 0.1% DMSO (final concentration).
Supernatants were collected for measurement of IL-11 (R&D DuoSet, DY218) by ELISA following the manufacturers' instructions. Generally, capture antibodies were initially diluted to the recommended concentrations using PBS buffer, and then used to coat the wells of 96-well microplates (Greiner, #655061) by adding 50 μL/well and incubated overnight at room temperature. Next day, solutions were discarded and wells were washed 3 times with wash buffer (PBS containing 0.1% (v/v) Tween-20) prior to the addition of 200 μL of blocking solution (PBS containing 1% (v/v) BSA) for 1 hour to block non-specific sites. Plates were then washed 3 times with wash buffer and 50 μL of samples or standards were then added to wells and incubated for 2 hours at room temperature. After the incubation, plates were washed 3 times with wash buffer and 50 μL of detection antibodies were added to wells and incubated for 2 hours at room temperature. Plates were then washed 3 times before adding streptavidin-conjugated horseradish peroxidase (at the recommended concentrations) for 45 min. Plates were then washed 5 times with wash buffer and 100 μL TMB substrate solution (equal parts A and B, BD Biosciences) was added to each well until sufficient signals emerged. The reactions were inactivated by adding 100 μL sulphuric acid (2M H2SO4). The absorbance was measured at 450 nm using the Multiskan Ascent® plate reader. The absorbance of the cytokine standards was fitted to a logistic equation, allowing the concentrations of cytokine in samples to be determined.
PIC50 values (the negative log of the concentration suppressing IL-11 level by 50%) for inhibition of TGF-β-induced IL-11 were interpolated from the linear regression of log concentration small molecule versus IL-11 level (Table 4 and FIG. 2).

T3 sequence (Q8N4C8 whole entry): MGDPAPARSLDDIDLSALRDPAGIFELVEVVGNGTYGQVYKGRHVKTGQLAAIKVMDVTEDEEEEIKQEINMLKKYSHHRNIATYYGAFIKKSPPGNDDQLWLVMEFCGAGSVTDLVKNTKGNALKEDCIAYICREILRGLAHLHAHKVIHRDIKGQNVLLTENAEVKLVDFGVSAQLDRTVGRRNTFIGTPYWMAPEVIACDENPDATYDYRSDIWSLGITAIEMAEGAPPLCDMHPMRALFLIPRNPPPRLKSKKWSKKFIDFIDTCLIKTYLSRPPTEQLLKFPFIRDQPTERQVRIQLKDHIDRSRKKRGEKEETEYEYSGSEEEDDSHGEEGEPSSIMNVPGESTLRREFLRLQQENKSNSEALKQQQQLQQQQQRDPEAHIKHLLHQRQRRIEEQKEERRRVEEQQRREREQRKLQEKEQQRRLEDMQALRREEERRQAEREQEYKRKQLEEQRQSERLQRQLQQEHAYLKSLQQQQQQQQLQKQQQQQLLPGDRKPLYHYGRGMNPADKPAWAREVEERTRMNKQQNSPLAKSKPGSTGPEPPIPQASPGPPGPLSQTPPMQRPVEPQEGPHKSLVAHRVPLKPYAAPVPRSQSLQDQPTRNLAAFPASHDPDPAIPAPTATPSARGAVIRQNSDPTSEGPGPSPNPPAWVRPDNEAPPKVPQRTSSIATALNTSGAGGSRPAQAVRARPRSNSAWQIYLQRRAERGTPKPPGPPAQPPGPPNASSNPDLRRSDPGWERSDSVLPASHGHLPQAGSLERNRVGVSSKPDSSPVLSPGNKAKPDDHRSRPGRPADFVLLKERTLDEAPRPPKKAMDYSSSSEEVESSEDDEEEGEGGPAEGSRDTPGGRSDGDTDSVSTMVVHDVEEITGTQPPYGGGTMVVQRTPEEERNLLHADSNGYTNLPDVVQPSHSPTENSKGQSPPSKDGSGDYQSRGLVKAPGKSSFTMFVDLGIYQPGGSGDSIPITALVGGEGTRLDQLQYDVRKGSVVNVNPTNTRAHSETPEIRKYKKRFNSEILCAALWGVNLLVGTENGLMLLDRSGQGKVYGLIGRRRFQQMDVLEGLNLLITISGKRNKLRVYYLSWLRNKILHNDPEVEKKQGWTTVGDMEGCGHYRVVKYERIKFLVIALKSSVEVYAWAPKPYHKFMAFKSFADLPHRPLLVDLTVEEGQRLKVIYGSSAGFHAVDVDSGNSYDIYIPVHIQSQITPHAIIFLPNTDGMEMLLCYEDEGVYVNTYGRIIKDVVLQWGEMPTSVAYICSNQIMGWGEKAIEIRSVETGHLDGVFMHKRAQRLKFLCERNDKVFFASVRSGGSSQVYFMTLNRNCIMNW
T1 sequence (P48730 whole entry): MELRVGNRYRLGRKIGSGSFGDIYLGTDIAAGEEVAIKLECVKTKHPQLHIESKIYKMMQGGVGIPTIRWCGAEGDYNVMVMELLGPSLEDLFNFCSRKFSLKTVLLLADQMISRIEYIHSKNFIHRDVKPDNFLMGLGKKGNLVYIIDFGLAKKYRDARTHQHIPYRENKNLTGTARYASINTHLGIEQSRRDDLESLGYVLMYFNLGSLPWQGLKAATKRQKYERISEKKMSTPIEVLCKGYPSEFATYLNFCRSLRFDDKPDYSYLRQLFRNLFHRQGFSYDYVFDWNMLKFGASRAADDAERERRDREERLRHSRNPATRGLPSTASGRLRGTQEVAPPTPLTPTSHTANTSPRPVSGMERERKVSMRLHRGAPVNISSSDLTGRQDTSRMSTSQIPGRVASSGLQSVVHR
T2 sequence (Q15303 26-1308): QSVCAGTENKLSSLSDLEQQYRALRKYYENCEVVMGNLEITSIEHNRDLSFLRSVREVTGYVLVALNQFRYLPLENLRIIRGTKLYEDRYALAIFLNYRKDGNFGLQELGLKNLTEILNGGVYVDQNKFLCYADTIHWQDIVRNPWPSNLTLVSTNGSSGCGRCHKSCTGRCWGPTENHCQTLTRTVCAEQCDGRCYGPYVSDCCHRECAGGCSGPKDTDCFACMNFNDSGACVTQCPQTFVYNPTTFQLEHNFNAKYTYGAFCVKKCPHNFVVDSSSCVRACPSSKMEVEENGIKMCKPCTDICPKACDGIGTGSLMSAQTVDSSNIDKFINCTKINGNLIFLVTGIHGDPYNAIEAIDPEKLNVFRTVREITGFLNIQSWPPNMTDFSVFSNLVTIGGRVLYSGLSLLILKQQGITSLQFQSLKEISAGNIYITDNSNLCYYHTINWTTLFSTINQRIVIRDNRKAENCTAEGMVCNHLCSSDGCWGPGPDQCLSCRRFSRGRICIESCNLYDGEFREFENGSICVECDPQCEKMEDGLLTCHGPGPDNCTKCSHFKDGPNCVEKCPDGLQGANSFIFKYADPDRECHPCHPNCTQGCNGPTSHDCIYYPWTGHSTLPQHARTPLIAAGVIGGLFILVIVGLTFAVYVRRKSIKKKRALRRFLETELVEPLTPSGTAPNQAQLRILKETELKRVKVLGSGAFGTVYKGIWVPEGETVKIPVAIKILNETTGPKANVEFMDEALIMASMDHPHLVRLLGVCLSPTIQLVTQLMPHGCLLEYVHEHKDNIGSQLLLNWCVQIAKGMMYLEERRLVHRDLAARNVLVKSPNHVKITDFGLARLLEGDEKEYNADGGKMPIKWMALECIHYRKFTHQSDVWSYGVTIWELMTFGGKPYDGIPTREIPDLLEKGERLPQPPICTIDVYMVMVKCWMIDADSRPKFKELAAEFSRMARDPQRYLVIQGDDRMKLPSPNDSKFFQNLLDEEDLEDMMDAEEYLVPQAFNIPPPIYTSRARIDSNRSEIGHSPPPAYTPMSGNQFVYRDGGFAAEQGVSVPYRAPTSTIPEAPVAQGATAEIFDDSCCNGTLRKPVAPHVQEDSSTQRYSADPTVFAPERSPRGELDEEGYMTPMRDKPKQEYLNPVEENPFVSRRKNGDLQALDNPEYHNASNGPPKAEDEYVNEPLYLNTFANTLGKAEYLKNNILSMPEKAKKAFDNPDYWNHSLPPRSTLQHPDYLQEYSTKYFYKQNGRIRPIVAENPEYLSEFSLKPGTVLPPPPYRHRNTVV

Row | Structure (SMILES) | IC50 [1] | IC50 (ERBB4/HER4) | IC50 (MINK/MINK1) | IC50 [2]
1 | Fc1ccc(-c2ncn(C3CCCCC3)c2-c2ccnc(NC3CCCC3)n2)cc1 [ZH2-46, 4-(1-Cyclohexyl-4-(4-fluorophenyl)-1H-imidazol-5-yl)-N-cyclopentylpyrimidin-2-amine] | 4.99e-09 M | 9.01e-06 M | 6.69e-08 M | 
2 | Fc1ccc(-c2ncn(C3CCCCC3)c2-c2ccnc(NC3CCOCC3)n2)cc1 [ZH2-54, 4-(1-Cyclohexyl-4-(4-fluorophenyl)-1H-imidazol-5-yl)-N-(tetrahydro-2H-pyran-4-yl)pyrimidin-2-amine] | 1.73e-09 M |  | 1.7e-07 M | 4370 nM
3 | Fc1ccc(-c2ncn(C3CCCCC3)c2-c2ccnc(NC3CCCCC3)n2)cc1 [ZH2-58, N-Cyclohexyl-4-(1-cyclohexyl-4-(4-fluorophenyl)-1H-imidazol-5-yl)pyrimidin-2-amine] | 1.95e-08 M | > 1e-05 M | 2.36e-07 M | 29500 nM
4 | CCNc1nccc(-c2c(-c3ccc(F)cc3)ncn2C2CCCCC2)n1 [ZH2-78, 4-(1-Cyclohexyl-4-(4-fluorophenyl)-1H-imidazol-5-yl)-N-ethylpyrimidin-2-amine] | 4.7e-09 M | 7.5e-07 M | 2.26e-08 M | 295 nM
5 | Fc1ccc(-c2ncn(C3CCCCC3)c2-c2ccnc(NCc3cccc(F)c3)n2)cc1 [ZH2-114, 4-(1-Cyclohexyl-4-(4-fluorophenyl)-1H-imidazol-5-yl)-N-(3-fluorobenzyl)pyrimidin-2-amine] | 3.67e-09 M |  | 3.33e-08 M | 
6 | Fc1ccc(-c2ncn(C3CCCCC3)c2-c2ccnc(NCc3ccccc3F)n2)cc1 [ZH2-118, 4-(1-Cyclohexyl-4-(4-fluorophenyl)-1H-imidazol-5-yl)-N-(2-fluorobenzyl)pyrimidin-2-amine] | 9.6e-09 M | 3.66e-06 M | 4.21e-08 M | 1450 nM
7 | Fc1ccc(CNc2nccc(-c3c(-c4ccc(F)cc4)ncn3C3CCCCC3)n2)cc1 [ZH2-122, 4-(1-Cyclohexyl-4-(4-fluorophenyl)-1H-imidazol-5-yl)-N-(4-fluorobenzyl)pyrimidin-2-amine] | 5.07e-09 M |  | 1.95e-08 M | 2450 nM
8 | Fc1ccc(-c2ncn(C3CCCCC3)c2-c2ccnc(NC3CCC(F)(F)CC3)n2)cc1 [ZH2-146, 4-(1-Cyclohexyl-4-(4-fluorophenyl)-1H-imidazol-5-yl)-N-(4,4-difluorocyclohexyl)pyrimidin-2-amine] | 4.93e-09 M |  | 1.1e-07 M | 11500 nM
9 | O[C@H]1C[C@H](Nc2nccc(-c3c(-c4ccc(F)cc4)ncn3C3CCCCC3)n2)C1 [ZH3-50, trans-3-((4-(1-Cyclohexyl-4-(4-fluorophenyl)-1H-imidazol-5-yl)pyrimidin-2-yl)amino)cyclobutan-1-ol] | 1.36e-09 M | 4.41e-06 M | 1.73e-08 M | 417 nM
10 | Nc1nccc(-c2c(-c3ccc(F)cc3)ncn2C2CCCC2)n1 [ZH3-58, 4-(1-Cyclopentyl-4-(4-fluorophenyl)-1H-imidazol-5-yl)pyrimidin-2-amine] | 8.33e-09 M | 1.39e-06 M | 2.17e-07 M | 550 nM
11 | O[C@H]1C[C@@H](Nc2nccc(-c3c(-c4ccc(F)cc4)ncn3C3CCCCC3)n2)C1 [ZH3-62, cis-3-((4-(1-Cyclohexyl-4-(4-fluorophenyl)-1H-imidazol-5-yl)pyrimidin-2-yl)amino)cyclobutan-1-ol] | 1.31e-09 M | > 1e-05 M | 7.53e-09 M | 1000 nM
12 | Fc1ccc(-c2ncn(C3CCCCC3)c2-c2ccnc(NC3CC(F)(F)C3)n2)cc1 [ZH3-70, 4-(1-Cyclohexyl-4-(4-fluorophenyl)-1H-imidazol-5-yl)-N-(3,3-difluorocyclobutyl)pyrimidin-2-amine] | 1e-09 M |  | 2.16e-08 M | 
13 | CC(C)(C)Cn1cnc(-c2ccc(F)cc2)c1-c1ccnc(N)n1 [ZH3-78, 4-(4-(4-Fluorophenyl)-1-neopentyl-1H-imidazol-5-yl)pyrimidin-2-amine] | 5.93e-08 M | 8.35e-06 M | 8.09e-07 M | 8510 nM
14 | Fc1ccc(-c2ncn(C3CCCCC3)c2-c2ccnc(NC3CC3)n2)cc1 [ZH3-86, 4-(1-Cyclohexyl-4-(4-fluorophenyl)-1H-imidazol-5-yl)-N-cyclopropylpyrimidin-2-amine] | 7.59e-09 M | 1.48e-06 M | 1.06e-08 M | 339 nM
15 | Fc1ccc(-c2ncn(CC3CCCCC3)c2-c2ccnc(NC3COC3)n2)cc1 [ZH3-114, 4-(1-(Cyclohexylmethyl)-4-(4-fluorophenyl)-1H-imidazol-5-yl)-N-(oxetan-3-yl)pyrimidin-2-amine] | 1.17e-09 M | 3e-06 M | 9.44e-08 M | 10500 nM
16 | OCCNc1nccc(-c2c(-c3ccc(F)cc3)ncn2CC2CCCCC2)n1 [ZH3-118, 2-((4-(1-(Cyclohexylmethyl)-4-(4-fluorophenyl)-1H-imidazol-5-yl)pyrimidin-2-yl)amino)ethan-1-ol] | 2.13e-09 M | 5.13e-07 M | 1.97e-07 M | 8320 nM
17 | CCn1cnc(-c2ccc(F)cc2)c1-c1ccnc(NC2CCC2)n1 [ZH3-122, N-Cyclobutyl-4-(1-ethyl-4-(4-fluorophenyl)-1H-imidazol-5-yl)pyrimidin-2-amine] | 4.16e-09 M | 4.42e-06 M | 1.83e-08 M | 178 nM
18 | Nc1nccc(-c2c(-c3ccc(F)cc3)ncn2CC2CCC(F)(F)CC2)n1 [ZH3-130, 4-(1-((4,4-Difluorocyclohexyl)methyl)-4-(4-fluorophenyl)-1H-imidazol-5-yl)pyrimidin-2-amine] | 6.13e-09 M | 1.42e-06 M | 8.9e-07 M | 832 nM
19 | O=S1(=O)CCC(Nc2nccc(-c3c(-c4ccc(F)cc4)ncn3C3CCCCC3)n2)CC1 [ZH3-134, 4-((4-(1-Cyclohexyl-4-(4-fluorophenyl)-1H-imidazol-5-yl)pyrimidin-2-yl)amino)tetrahydro-2H-thiopyran 1,1-dioxide] | 1.15e-09 M |  | 3.77e-08 M | 
